# Columns and labels:
# Assay in all cases: ITC
# Assay type in all cases: binding
# AMPylated BiP* FL = target: T1, AMPylated BiP* FL (Cricetulus griseus, UniProt G3I8R9, T229G/V461F)
# T1 construct: gene HSPA5; T229G
# Source text: ITC on AMPylated BiP* FL | nucleotide (ATP or ADP) binding to non-AMPylated and AMPylated V461F BiP* measured by ITC
# [1] = target: T2, BiP* FL (full-length T229G BiP, BiP(1-641)) (Cricetulus griseus, UniProt G3I8R9, T229G/V461F)
# T2 construct: gene HSPA5; full-length two-domain BiP, residues 1-641 as printed, non-cleavable N-terminal 6xHis tag, pET28a, E. coli BL21(DE3); ATPase-deficient T229G; non-AMPylated
# Source text: ITC on BiP* FL (full-length T229G BiP, BiP(1-641)) | ATP and ADP binding obtained from ITC experiments for FL BiP*
# [2] = target: T3, BiP* FL (full-length T229G BiP, BiP(1-641)) (Cricetulus griseus, UniProt G3I8R9, T229G)
# T3 construct: gene HSPA5; full-length two-domain BiP, residues 1-641 as printed, non-cleavable N-terminal 6xHis tag, pET28a, E. coli BL21(DE3); ATPase-deficient T229G; non-AMPylated
# Source text: ITC on BiP* FL (full-length T229G BiP, BiP(1-641))
# BiP* NBD(1-417) = target: T4, BiP* NBD(1-417) (Cricetulus griseus, UniProt G3I8R9, T229G)
# T4 construct: gene HSPA5; T229G
# BiP* NBD(1-413) = target: T5, BiP* NBD(1-413) (Cricetulus griseus, UniProt G3I8R9, T229G)
# T5 construct: gene HSPA5; T229G
# T5 sequence (G3I8R9 1-413 T229G): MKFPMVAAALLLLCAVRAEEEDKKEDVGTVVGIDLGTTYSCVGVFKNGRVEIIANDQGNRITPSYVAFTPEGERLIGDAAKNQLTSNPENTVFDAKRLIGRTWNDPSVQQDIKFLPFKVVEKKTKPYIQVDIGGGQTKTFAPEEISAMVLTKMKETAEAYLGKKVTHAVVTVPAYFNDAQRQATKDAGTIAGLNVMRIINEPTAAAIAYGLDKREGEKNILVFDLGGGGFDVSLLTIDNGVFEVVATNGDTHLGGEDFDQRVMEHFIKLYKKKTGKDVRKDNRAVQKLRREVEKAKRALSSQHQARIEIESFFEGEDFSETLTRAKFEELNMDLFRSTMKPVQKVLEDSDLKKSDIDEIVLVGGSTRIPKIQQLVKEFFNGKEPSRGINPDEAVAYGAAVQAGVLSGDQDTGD
# T1 sequence (G3I8R9 1-641 T229G/V461F): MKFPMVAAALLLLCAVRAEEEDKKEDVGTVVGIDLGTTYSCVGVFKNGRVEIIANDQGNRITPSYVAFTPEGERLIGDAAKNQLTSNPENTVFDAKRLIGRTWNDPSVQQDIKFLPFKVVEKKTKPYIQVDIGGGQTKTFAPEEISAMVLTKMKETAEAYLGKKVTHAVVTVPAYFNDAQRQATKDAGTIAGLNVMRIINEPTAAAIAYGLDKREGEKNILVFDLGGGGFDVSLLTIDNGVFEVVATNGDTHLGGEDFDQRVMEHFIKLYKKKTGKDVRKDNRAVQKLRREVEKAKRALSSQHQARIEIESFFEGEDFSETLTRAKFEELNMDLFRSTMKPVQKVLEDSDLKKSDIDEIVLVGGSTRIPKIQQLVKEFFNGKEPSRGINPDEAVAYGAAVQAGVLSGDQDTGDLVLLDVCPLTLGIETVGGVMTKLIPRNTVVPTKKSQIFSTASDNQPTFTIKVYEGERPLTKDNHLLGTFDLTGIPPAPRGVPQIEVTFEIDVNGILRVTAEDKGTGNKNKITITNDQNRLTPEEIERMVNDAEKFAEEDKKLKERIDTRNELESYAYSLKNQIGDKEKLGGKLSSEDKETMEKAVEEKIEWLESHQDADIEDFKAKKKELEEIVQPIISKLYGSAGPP
# T2 sequence (G3I8R9 1-641 T229G/V461F): as above
# T3 sequence (G3I8R9 1-641 T229G): as the sequence (G3I8R9 1-641 T229G/V461F) above, with F461V counted along it
# T4 sequence (G3I8R9 1-417 T229G): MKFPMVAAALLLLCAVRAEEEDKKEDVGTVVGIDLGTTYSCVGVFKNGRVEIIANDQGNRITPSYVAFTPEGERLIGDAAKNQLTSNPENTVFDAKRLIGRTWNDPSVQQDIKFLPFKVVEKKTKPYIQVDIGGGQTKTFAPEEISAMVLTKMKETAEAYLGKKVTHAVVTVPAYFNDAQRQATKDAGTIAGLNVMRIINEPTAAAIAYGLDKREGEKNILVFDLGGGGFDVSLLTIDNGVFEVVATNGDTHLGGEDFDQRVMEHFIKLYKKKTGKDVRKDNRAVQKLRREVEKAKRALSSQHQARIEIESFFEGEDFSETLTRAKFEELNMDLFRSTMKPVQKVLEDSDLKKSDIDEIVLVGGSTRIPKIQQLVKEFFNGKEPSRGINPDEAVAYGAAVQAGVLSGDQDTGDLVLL
Kd (AMPylated BiP* FL),Kd [1],Kd [2],Kd (BiP* NBD(1-417)),Kd (BiP* NBD(1-413)),Structure (SMILES)
0.07 µM,0.21 µM,–,–,–,Nc1ncnc2c1ncn2[C@@H]1O[C@H](COP(=O)(O)OP(=O)(O)OP(=O)(O)O)[C@@H](O)[C@H]1O [ATP]
2.36 µM,4.49 µM,5.73 µM,3.94 µM,5.27 µM,Nc1ncnc2c1ncn2[C@@H]1O[C@H](COP(=O)(O)OP(=O)(O)O)[C@@H](O)[C@H]1O [ADP]
